Measurements taken from PMC6367750 (Future Medicinal Chemistry, 2018).
Like-named read-outs stand apart in the source and are kept apart here.

Columns and labels:
MV4–11 [1] = details: cited from earlier work
Molm13 = details: cited from earlier work
FLT3-ITD [2] = molecular target: T1, FLT3-ITD (Homo sapiens, UniProt P36888); experiment: FLT3-ITD kinase inhibition, ADP-Glo kinase assay; assay type: biochemical; details: SAR discussion of Table 1
T1 sequence (P36888 564-993): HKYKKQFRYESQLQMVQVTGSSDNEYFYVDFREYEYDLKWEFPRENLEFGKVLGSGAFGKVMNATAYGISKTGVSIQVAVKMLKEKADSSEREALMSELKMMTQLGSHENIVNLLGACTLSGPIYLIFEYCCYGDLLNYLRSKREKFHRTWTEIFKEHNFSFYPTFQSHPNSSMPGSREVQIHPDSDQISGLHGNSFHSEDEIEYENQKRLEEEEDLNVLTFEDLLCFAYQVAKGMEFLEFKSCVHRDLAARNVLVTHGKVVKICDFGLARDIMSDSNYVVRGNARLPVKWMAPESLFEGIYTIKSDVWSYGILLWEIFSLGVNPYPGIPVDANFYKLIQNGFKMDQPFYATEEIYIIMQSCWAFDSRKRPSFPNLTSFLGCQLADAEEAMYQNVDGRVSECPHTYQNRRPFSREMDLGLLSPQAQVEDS

FLT3-ITD [3] = molecular target: T2, FLT3-ITD (Homo sapiens, UniProt P36888, ITD); experiment: FLT3-ITD kinase inhibition, ADP-Glo kinase assay; assay type: biochemical; details: read-out: %FLT3 inhibition FLT3-ITD
T2 sequence (P36888 564-993): T1 sequence (P36888 564-993)

MV4–11 [4] = experiment: Antiproliferative activity, CellTiter-Blue; assay type: cell-based; details: for AML cell growth inhibition: SAR discussion of Table 1
Molm14 = experiment: Antiproliferative activity, CellTiter-Blue; assay type: cell-based
[5] = test system: Molm13-res (FLT3 (ITD, D835Y)); experiment: Antiproliferative activity, CellTiter-Blue; assay type: cell-based; details: 72 h
c-Kit = details: read-out: IC50 c-Kit; cited from earlier work
ABL1-phosphorylated = ABL1-phosphorylated (Homo sapiens, UniProt P00519); details: read-out: Kd ABL1-phosphorylated; KdELECT; ref Zimmerman et al. [28]; cited from earlier work
ABL1-nonphosphorylated = ABL1-nonphosphorylated (Homo sapiens, UniProt P00519); details: read-out: Kd ABL1-nonphosphorylated; KdELECT; ref Zimmerman et al. [28]; cited from earlier work
FLT3 D835Y = details: read-out: IC50 FLT3 D835Y; cited from earlier work
[6] = test system: K562, NOMO-1, HL60 and MOLT4; experiment: Antiproliferative activity, non-FLT3-driven leukemia cell lines; assay type: cell-based; details: 72 h, read-out: IC50 range over non-FLT3-driven leukemia cell lines
FLT3 = molecular target: T3, FLT3 (Homo sapiens, UniProt P36888); experiment: DiscoverX ScanEdge kinase profiling; assay type: binding; details: read-out: percent inhibition FLT3
T3 sequence (P36888 27-993): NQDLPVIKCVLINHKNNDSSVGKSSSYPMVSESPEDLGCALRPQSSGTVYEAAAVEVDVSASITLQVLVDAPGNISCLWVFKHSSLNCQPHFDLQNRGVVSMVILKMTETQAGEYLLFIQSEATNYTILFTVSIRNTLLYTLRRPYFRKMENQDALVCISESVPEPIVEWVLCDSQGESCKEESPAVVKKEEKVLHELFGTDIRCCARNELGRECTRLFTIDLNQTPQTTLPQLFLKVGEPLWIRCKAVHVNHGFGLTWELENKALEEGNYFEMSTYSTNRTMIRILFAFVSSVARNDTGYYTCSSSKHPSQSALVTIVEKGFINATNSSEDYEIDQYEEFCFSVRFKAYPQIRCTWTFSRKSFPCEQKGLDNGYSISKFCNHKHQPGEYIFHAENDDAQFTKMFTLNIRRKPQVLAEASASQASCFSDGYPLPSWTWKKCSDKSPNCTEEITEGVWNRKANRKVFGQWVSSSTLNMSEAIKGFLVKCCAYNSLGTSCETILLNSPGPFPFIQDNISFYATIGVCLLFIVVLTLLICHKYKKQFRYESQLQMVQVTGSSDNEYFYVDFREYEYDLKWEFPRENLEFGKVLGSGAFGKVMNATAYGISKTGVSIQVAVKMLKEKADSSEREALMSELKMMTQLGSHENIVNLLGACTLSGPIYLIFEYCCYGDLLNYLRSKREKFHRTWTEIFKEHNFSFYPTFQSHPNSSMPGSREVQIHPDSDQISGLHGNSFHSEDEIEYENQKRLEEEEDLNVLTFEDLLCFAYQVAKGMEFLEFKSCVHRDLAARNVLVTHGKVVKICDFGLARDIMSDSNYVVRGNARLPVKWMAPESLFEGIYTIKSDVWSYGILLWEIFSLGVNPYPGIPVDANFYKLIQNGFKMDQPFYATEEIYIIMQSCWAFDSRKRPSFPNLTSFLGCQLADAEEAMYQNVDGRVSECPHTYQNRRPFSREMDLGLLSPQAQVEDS

JAK2 = JAK2 (Homo sapiens, UniProt O60674); experiment: DiscoverX ScanEdge kinase profiling; assay type: binding; details: read-out: percent inhibition JAK2
JAK3 = JAK3 (Homo sapiens, UniProt P52333); experiment: DiscoverX ScanEdge kinase profiling; assay type: binding; details: read-out: percent inhibition JAK3
MKNK2 = MKNK2 (Homo sapiens, UniProt Q9HBH9); experiment: DiscoverX ScanEdge kinase profiling; assay type: binding; details: read-out: percent inhibition MKNK2
phospho-STAT5 = experiment: Western blot of phospho-STAT5 in MV4–11 cells; assay type: cell-based
TOPK = experiment: Western blot of TOPK protein in MV4–11 cells; assay type: cell-based
TOPK mRNA = experiment: Real-time PCR of TOPK mRNA in MV4–11 cells; assay type: cell-based; details: 24 h
MV4–11 [7] = experiment: Cell cycle analysis; assay type: cell-based; details: MV4–11, 24 h
[8] = Homo sapiens, MV4-11, 72 h, read-out: IC50 MV4–11, 72 h
[9] = Homo sapiens, MOLM-14, 72 h, read-out: IC50 Molm14, 72 h
[10] = read-out: IC50 Molm13-res, 72 h

Sequence of JAK2 (O60674 840-1132 limits assumed): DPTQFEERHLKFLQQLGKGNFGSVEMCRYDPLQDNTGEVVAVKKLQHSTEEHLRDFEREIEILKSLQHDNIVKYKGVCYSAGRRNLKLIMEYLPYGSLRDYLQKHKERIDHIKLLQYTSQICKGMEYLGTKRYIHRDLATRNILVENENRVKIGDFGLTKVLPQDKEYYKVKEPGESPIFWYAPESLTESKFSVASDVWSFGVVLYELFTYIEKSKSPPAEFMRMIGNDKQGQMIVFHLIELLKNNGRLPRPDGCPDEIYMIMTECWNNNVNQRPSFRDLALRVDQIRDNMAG
Sequence of JAK3 (P52333 813-1124 limits assumed): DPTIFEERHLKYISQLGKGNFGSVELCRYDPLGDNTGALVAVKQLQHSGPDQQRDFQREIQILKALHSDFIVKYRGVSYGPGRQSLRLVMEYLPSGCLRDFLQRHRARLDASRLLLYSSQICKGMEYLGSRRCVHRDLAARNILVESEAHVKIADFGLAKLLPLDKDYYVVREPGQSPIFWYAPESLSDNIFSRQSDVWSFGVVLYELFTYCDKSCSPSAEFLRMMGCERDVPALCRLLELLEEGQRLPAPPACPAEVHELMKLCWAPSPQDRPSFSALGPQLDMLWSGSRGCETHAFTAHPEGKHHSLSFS
Sequence of ABL1-phosphorylated (P00519 whole entry): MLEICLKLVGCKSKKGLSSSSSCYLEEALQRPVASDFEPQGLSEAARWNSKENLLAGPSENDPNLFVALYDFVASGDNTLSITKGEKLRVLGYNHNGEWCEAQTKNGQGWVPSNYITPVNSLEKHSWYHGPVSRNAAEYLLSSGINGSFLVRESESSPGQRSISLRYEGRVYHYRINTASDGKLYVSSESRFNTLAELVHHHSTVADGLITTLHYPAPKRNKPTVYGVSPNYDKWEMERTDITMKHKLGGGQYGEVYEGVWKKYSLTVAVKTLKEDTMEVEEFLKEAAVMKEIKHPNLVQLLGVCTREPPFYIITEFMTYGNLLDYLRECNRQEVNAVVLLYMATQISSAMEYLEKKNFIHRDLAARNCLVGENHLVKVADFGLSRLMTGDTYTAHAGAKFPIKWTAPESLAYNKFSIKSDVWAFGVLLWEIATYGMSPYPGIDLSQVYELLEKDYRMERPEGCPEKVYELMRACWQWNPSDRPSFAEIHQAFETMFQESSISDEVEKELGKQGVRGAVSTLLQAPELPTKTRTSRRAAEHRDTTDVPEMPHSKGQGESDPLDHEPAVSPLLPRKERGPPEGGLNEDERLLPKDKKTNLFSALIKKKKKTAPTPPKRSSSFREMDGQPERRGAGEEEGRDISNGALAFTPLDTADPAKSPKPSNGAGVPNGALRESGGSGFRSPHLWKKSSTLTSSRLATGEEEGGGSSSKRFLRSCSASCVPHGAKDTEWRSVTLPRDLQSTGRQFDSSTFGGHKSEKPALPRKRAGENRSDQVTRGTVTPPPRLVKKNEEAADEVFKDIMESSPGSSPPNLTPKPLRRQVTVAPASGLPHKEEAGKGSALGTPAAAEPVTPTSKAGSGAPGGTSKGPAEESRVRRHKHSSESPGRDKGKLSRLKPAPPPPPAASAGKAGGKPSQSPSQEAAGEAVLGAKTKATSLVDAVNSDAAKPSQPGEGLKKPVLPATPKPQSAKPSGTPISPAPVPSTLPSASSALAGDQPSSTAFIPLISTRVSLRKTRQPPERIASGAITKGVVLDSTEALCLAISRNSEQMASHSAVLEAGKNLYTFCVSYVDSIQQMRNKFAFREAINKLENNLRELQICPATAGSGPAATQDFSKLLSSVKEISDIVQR
Sequence of ABL1-nonphosphorylated (P00519 whole entry): as above
Sequence of MKNK2 (Q9HBH9 whole entry): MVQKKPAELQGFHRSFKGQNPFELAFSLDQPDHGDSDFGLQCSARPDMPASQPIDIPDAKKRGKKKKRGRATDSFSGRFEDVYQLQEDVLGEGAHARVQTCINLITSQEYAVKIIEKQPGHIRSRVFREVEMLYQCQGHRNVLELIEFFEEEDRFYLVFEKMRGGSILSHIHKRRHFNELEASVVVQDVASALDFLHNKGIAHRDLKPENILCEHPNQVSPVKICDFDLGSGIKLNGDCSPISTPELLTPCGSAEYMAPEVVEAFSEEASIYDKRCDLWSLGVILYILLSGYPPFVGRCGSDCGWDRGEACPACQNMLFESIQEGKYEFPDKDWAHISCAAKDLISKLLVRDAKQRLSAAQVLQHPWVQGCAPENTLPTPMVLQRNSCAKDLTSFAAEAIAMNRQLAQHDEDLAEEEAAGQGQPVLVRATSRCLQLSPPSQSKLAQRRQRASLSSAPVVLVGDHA

| Compound | inhibition at 0.1 µM (FLT3-ITD [3]) | IC50 (MV4–11 [4]; [8]) | AML cell growth inhibition (MV4–11 [4]) | further results |
| --- | --- | --- | --- | --- |
| CO[C@@H]1[C@H](N(C)C(=O)c2ccccc2)C[C@H]2O[C@]1(C)n1c3ccccc3c3c4c(c5c6ccccc6n2c5c31)C(=O)NC4 [PKC412 (midostaurin), midostaurin] | – | – | – | effect on cell cycle (MV4–11 [1]): did not affect cell cycle pattern; effect on cell cycle (Molm13): did not affect cell cycle pattern |
| C[C@H]1CC[C@H](n2c3cnccc3c3cnc(Nc4ccc5c(n4)CCN(C(=O)CO)C5)nc32)CC1 [AMG 925] | – | – | – | effect on cell cycle (Molm13): induce arrest in the G0/1 phase |
| NC1CCc2c(c(-c3c[nH]nc3C(F)(F)F)nc3ccc4[nH]ncc4c23)C1 (stereo not drawn) [Compound 7] | 71% | 132 nM | less active | – |
| Cc1n[nH]cc1-c1nc2ccc3[nH]ncc3c2c2c1CCCC2 [Compound 9] | 54% | 61.5 nM | potent inhibitors of AML proliferation | IC50 (Molm14; [9]): 64.1 nM; IC50 [5, 10]: 86.7 nM |
| CCc1nc(C(N)=O)c(Nc2ccc(N3CCC(N4CCN(C)CC4)CC3)c(OC)c2)nc1NC1CCOCC1 [gilteritinib] | – | – | – | IC50 (c-Kit): 230 nM |
| Nc1ncc(-c2ccncc2)nc1Nc1ccc2[nH]ccc2c1 [AKN-028] | – | – | – | effect on cell cycle (MV4–11 [1]): induce arrest in the G0/1 phase |
| c1[nH]nnc1-c1nc2ccc3[nH]ncc3c2c2c1CCCC2 [Compound 12] | 56% | 154 nM | not as active as HSD1169 | – |
| CC1(COc2ccc3c(c2)ncn3-c2ccc3cccc(N4CCC(N)CC4)c3n2)COC1 [Crenolanib, crenolanib] | – | – | – | Kd (ABL1-phosphorylated): 430 nM; Kd (ABL1-nonphosphorylated): 140 nM; IC50 (FLT3 D835Y): 6.9 nM |

Now from value to compound, other results behind:

| inhibition at 0.1 µM (FLT3-ITD [3]) | IC50 (MV4–11 [4]; [8]) | Compound | AML cell growth inhibition (MV4–11 [4]) | further results |
| --- | --- | --- | --- | --- |
| 8% | 898 nM | FC(F)(F)c1n[nH]cc1-c1nc2ccc3[nH]ccc3c2c2c1CCCC2 [Compound 19] | did not inhibit FLT3 enzymatic activity or AML cell growth | FLT3 enzymatic inhibition (FLT3-ITD [2]): did not inhibit FLT3 enzymatic activity |
| 6% | 1300 nM | c1cncc(-c2n[nH]cc2-c2nc3ccc4[nH]ncc4c3c3c2CCCC3)c1 [Compound 15] | inactive compounds | – |
| 19% | 772 nM | c1cc(-c2n[nH]cc2-c2nc3ccc4[nH]ncc4c3c3c2CCCC3)cs1 [Compound 17] | inactive compounds | – |
| 5% | > 5000 nM | FC(F)(F)c1cc(-c2nc3ccc4[nH]ncc4c3c3c2CCCC3)n[nH]1 [Compound 13] | inactive even at 1000 nM | – |
| 26% | 1450 nM | c1ccc(-c2n[nH]cc2-c2nc3ccc4[nH]ncc4c3c3c2CCCC3)cc1 [Compound 14] | – | – |
| 27% | 1390 nM | OCCn1cc(-c2nc3ccc4[nH]ncc4c3c3c2CCCC3)cn1 [Compound 20] | inactive compounds | – |
| 80% | 5 nM | FC(F)(F)c1n[nH]cc1-c1nc2ccc3[nH]ncc3c2c2c1CCCC2 [HSD1169] | potent inhibitors of AML proliferation | IC50 (MV4–11 [4]; read-out: IC50 MV4–11, 72 h, listed as 4 (HSD1169)): 5.4 nM; IC50 (Molm14; [9]): 5 nM; IC50 (Molm14; read-out: IC50 Molm14, 72 h, listed as 4 (HSD1169)): 4.9 nM; IC50 [5, 10]: 5 nM; IC50 ([5]; read-out: IC50 Molm13-res, listed as 4 (HSD1169)): 5.1 nM; IC50 [6]: 620 to 1860 nM; inhibition at 0.5 µM (FLT3): > 90%; inhibition at 0.5 µM (JAK2): > 90%; inhibition at 0.5 µM (JAK3): > 90%; inhibition at 0.5 µM (MKNK2): > 90%; phosphorylation of STAT5 (western blot, words) (phospho-STAT5): inhibited the phosphorylation of STAT5; TOPK protein level (western blot, words) (TOPK): reduction of TOPK protein in a dose-dependent manner; TOPK mRNA level (TOPK mRNA): downregulation of TOPK mRNA; effect on cell cycle (MV4–11 [7]): dose-dependent increase in the percentage of cells in the G0/1 phase |
